pIC50: −log10 of the molar value.
Legend:
Assay type in all cases: functional, cell-based
HepG2 = assay: Antiproliferative activity against human HepG2 cells measured after 48 hrs by MTT assay; details: HepG2, 48 h
PC-3 = assay: Antiproliferative activity against human PC3 cells measured after 48 hrs by MTT assay; details: PC-3, 48 h
MGC-803 [1] = assay: Antiproliferative activity against human MGC803 cells measured after 48 hrs by MTT assay; details: MGC-803, 48 h
MGC-803 [2] = assay: Antiproliferative activity against human MGC803 cells measured after 48 hrs by CCK8 assay; details: MGC-803, 48 h

pIC50 (HepG2) | pIC50 (PC-3) | pIC50 (MGC-803 [1]) | pIC50 (MGC-803 [2]) | SMILES
4.52 | 4.91 | 5.80 |  | COc1ccc(CN(C(=O)Cn2cc(CNS(=O)(=O)c3ccc(C)cc3)nn2)c2cc(OC)c(OC)c(OC)c2)cc1
< 4.10 | < 4.10 | < 4.10 |  | COc1ccc(CN(C(=O)Cn2cc(CN3c4ccccc4Sc4ccc(C(F)(F)F)cc43)nn2)c2cc(OC)c(OC)c(OC)c2)cc1
4.40 | 5.62 | 4.37 |  | COc1ccc(CN(C(=O)Cn2cc(Cn3ccc4ccccc43)nn2)c2cc(OC)c(OC)c(OC)c2)cc1
 |  |  | 6.97 | COc1cc(N2C(=O)[C@H](c3cccs3)[C@H]2c2cccc(N=[N+]=[N-])c2)cc(OC)c1OC
4.60 | 4.80 | 5.79 |  | COc1ccc(CN(C(=O)Cn2cc(CSC3=NCCS3)nn2)c2cc(OC)c(OC)c(OC)c2)cc1
< 4.10 | < 4.10 | < 4.10 |  | C#CCOc1ccc2c(C)cc(=O)oc2c1
4.41 | 4.78 | 5.30 |  | COc1ccc(CN(C(=O)Cn2cc(CSc3nncs3)nn2)c2cc(OC)c(OC)c(OC)c2)cc1
4.31 | 4.55 | 6.32 |  | COc1ccc(CN(C(=O)Cn2cc(CSc3nc4ccccc4s3)nn2)c2cc(OC)c(OC)c(OC)c2)cc1
4.66 | 4.71 | 5.82 |  | COc1ccc(CN(C(=O)Cn2cc(CSc3nnc(-c4ccccc4)c(-c4ccccc4)n3)nn2)c2cc(OC)c(OC)c(OC)c2)cc1

Reference: ChEMBL document CHEMBL4480396 (Eur J Med Chem, 2019)
